Reference: US12650424B2, “Method and system for determining intracellular mediators' activity” (ECOLE POLYTECHNIQUE FEDERALE DE LAUSANNE (EPFL), priority 2020, dated 2026)

What was measured:
angiotensin receptor = conditions: plasma membranes of HEK cells on beads
[1] = test system: Protease-activated receptor PAR; test: dose response of GPCR activation in plasma membranes on immunostained WGA-beads (Gαq release); assay type: biochemical; conditions: plasma membranes of HEK cells on beads; different concentrations
Text: FIG. 3. Schematic representation of the synthetic GPCR screening platform. 1. […] 2. […] 3. […] This leads to fluorescence labeled Gα-protein subunits. 4. […] 5.

Row | Substance | receptor activation triggering release of Gαi (angiotensin receptor) | receptor activation triggering release of Gαq [1]
1 | angiotensin | activated in a dose-dependent manner | 
2 | thrombin |  | activated by different concentrations
